In ChEMBL document CHEMBL1152560, “Substituted 2-arylbenzothiazoles as kinase inhibitors: hit-to-lead optimization” (Bioorg Med Chem, 2009):

How the values were obtained:
[1] = biological target: Fibroblast growth factor receptor 2 (Homo sapiens) (UniProt P21802); experiment: Residual activity of FGFR2 at 0.1 uM by microplate scintillation counting
[2] = biological target: T1, Inhibitor of nuclear factor kappa-B kinase subunit beta (Homo sapiens) (UniProt O14920); experiment: Residual activity of IKK-beta at 0.1 uM by microplate scintillation counting
T1 sequence (whole entry): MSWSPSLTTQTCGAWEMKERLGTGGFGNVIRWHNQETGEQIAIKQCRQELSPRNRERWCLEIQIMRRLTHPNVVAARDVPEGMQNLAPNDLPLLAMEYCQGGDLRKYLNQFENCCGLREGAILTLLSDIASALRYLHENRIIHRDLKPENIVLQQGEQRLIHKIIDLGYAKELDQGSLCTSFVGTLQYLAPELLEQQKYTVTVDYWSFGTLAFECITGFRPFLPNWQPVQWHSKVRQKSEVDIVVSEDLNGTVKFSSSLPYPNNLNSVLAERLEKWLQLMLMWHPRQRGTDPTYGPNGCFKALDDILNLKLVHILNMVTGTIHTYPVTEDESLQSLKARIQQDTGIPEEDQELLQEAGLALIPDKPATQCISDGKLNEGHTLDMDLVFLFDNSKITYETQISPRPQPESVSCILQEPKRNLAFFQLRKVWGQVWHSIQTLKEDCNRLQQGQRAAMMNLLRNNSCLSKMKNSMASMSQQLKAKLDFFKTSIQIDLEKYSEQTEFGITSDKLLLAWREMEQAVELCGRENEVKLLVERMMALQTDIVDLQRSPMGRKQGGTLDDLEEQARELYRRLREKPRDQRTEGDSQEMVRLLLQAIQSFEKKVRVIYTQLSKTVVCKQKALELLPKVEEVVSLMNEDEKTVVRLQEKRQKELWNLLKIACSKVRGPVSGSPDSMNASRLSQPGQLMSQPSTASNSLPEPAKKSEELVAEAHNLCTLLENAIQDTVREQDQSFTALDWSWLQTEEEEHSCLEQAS

[3] = biological target: Misshapen-like kinase 1 (Homo sapiens) (UniProt Q8N4C8); experiment: Residual activity of MINK1 at 1 uM by microplate scintillation counting
[4] = biological target: Serine/threonine-protein kinase N1 (Homo sapiens) (UniProt Q16512); experiment: Residual activity of PRK1 at 1 uM by microplate scintillation counting
[5] = biological target: T2, Activin receptor type-1 (Homo sapiens) (UniProt Q04771); experiment: Residual activity of ACV-R1 at 10 uM by microplate scintillation counting
T2 sequence (whole entry): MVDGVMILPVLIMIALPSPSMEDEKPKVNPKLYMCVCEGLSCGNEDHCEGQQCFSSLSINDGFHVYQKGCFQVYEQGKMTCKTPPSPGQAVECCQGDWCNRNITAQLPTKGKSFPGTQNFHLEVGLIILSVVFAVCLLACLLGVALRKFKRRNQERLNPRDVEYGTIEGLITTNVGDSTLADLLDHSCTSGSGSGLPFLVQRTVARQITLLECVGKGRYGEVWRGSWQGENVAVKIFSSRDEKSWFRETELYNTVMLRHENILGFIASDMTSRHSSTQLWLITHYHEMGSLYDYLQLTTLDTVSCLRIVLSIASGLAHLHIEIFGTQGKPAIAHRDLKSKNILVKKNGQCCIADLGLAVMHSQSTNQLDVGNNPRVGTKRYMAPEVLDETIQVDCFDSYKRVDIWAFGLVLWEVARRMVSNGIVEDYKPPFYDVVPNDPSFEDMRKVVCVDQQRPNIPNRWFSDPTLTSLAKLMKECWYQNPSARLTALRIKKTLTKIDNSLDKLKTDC

[6] = biological target: MAP kinase-activated protein kinase 3 (Homo sapiens) (UniProt Q16644); experiment: Residual activity of MAPKAPK3 at 10 uM by microplate scintillation counting
[7] = biological target: T3, Serine/threonine-protein kinase Nek3 (Homo sapiens) (UniProt P51956); experiment: Residual activity of NEK3 at 0.1 uM by microplate scintillation counting
T3 sequence (whole entry): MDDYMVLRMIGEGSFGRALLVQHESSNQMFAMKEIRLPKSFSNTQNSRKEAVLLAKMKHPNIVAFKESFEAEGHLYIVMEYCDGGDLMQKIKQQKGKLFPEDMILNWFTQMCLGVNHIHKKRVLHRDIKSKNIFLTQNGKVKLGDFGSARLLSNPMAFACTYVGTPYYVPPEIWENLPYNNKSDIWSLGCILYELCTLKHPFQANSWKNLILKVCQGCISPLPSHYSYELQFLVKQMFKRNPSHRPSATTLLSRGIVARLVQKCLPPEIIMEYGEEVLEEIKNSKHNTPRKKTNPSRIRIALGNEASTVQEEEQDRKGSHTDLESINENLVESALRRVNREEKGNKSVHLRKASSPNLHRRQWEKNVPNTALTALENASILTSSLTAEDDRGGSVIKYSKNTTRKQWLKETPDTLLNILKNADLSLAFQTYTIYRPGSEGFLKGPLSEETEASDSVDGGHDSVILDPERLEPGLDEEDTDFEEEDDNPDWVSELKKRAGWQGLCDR

[8] = biological target: T4, NUAK family SNF1-like kinase 2 (Homo sapiens) (UniProt Q9H093); experiment: Residual activity of SNARK at 10 uM by microplate scintillation counting
T4 sequence (whole entry): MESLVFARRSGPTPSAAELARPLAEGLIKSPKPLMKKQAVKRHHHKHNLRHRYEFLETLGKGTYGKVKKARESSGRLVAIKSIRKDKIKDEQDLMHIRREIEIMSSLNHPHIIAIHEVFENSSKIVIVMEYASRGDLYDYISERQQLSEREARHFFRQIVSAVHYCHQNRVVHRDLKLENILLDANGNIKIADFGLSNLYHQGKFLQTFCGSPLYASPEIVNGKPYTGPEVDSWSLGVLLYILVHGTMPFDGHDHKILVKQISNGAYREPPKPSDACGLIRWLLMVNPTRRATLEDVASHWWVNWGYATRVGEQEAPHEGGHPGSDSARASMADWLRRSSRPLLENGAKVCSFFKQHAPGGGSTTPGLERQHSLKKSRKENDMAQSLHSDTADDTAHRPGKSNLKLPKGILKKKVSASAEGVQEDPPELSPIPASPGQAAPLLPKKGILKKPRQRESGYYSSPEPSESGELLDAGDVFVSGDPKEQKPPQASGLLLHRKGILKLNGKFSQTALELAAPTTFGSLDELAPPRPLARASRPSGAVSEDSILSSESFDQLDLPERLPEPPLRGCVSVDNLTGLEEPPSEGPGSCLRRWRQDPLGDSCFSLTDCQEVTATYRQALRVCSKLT

[9] = biological target: Tyrosine-protein kinase SYK (Homo sapiens) (UniProt P43405); experiment: Residual activity of SYK at 10 uM by microplate scintillation counting
[10] = biological target: Ribosomal protein S6 kinase alpha-1 (Homo sapiens) (UniProt Q15418); experiment: Residual activity of RPS6KA1 at 0.1 uM by microplate scintillation counting
Chain of Ribosomal protein S6 kinase alpha-1 (Homo sapiens) (Q15418 whole entry): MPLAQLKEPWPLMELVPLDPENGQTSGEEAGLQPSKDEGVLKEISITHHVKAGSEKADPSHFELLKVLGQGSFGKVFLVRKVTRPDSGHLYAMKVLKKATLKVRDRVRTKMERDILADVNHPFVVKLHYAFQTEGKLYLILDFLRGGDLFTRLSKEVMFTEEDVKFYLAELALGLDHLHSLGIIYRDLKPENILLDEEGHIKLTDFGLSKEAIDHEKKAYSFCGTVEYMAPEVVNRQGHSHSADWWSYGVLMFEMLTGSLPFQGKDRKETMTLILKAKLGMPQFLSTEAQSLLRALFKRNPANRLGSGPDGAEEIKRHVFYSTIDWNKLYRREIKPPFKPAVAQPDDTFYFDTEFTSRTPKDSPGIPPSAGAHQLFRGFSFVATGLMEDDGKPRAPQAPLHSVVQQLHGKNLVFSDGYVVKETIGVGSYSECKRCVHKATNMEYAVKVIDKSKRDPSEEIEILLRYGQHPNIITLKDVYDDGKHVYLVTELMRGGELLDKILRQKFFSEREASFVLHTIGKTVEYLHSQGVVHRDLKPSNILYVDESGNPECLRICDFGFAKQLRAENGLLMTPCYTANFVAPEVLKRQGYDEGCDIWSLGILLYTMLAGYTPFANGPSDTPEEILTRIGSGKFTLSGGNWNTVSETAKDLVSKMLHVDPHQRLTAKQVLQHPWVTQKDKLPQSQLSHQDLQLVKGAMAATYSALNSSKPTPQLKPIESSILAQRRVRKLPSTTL

Chain of MAP kinase-activated protein kinase 3 (Homo sapiens) (Q16644 whole entry, looked up): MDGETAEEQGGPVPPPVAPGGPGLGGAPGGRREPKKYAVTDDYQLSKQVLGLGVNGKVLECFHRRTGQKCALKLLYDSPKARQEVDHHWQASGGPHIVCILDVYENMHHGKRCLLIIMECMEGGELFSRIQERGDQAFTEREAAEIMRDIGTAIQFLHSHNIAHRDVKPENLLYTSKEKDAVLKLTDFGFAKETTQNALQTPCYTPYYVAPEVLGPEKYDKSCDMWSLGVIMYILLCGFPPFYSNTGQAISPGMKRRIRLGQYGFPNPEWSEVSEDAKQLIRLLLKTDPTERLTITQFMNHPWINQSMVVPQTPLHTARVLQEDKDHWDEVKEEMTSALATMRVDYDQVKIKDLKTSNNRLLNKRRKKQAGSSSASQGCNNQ
Chain of Misshapen-like kinase 1 (Homo sapiens) (Q8N4C8 whole entry, looked up): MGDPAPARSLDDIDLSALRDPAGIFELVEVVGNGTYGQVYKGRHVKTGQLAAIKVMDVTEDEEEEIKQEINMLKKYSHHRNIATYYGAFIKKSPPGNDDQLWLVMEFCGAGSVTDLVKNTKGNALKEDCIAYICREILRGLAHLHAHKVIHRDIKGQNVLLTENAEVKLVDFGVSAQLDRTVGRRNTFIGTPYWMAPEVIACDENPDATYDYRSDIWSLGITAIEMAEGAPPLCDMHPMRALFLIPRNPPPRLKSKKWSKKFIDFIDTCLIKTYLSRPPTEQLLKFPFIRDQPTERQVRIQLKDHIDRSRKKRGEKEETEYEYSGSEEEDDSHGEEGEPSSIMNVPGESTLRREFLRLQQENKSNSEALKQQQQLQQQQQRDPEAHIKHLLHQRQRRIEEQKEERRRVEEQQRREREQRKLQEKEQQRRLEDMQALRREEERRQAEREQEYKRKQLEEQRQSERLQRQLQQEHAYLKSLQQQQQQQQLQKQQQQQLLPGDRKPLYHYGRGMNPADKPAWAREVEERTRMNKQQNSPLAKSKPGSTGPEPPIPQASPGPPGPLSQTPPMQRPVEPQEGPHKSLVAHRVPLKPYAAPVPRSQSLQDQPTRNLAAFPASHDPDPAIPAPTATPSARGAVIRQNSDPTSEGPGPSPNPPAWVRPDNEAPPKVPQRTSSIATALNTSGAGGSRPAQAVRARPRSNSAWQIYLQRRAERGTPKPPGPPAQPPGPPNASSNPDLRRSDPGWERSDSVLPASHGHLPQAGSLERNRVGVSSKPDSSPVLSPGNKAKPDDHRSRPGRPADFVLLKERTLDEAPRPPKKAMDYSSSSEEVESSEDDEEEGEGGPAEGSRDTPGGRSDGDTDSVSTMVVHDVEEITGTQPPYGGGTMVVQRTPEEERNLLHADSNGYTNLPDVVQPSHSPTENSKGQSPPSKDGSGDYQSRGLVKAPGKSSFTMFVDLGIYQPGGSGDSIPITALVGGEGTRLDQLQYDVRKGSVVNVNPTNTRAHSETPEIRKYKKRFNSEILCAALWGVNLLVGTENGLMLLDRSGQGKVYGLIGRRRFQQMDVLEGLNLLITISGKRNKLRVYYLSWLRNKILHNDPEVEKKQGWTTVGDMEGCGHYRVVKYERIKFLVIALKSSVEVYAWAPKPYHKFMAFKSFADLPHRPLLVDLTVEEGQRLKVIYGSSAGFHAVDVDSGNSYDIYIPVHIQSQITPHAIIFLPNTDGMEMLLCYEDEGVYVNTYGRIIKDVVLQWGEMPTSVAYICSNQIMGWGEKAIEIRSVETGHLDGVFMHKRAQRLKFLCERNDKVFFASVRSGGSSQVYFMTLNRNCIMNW
Chain of Fibroblast growth factor receptor 2 (Homo sapiens) (P21802 22-821 limits assumed): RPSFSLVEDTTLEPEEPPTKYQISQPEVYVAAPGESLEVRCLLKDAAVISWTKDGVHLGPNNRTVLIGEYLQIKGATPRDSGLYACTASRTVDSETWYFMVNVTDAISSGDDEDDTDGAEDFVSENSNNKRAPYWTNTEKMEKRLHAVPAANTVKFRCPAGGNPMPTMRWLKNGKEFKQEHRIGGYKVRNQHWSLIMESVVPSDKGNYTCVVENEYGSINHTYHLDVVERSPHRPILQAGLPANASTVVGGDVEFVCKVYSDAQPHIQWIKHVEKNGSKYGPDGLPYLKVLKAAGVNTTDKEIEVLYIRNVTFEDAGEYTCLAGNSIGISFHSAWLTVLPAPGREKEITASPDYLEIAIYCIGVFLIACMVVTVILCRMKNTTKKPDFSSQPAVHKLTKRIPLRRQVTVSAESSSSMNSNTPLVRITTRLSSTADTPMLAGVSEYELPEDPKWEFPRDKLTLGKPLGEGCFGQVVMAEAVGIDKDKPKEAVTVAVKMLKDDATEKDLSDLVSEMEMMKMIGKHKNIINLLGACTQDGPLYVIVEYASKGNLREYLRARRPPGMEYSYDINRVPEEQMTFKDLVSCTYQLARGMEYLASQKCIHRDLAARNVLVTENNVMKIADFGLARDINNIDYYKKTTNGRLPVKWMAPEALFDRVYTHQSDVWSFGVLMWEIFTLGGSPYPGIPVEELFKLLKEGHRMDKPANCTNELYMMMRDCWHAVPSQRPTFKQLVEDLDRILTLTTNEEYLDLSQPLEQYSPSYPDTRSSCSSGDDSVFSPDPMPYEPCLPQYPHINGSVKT
Chain of Serine/threonine-protein kinase N1 (Homo sapiens) (Q16512 2-942 limits assumed): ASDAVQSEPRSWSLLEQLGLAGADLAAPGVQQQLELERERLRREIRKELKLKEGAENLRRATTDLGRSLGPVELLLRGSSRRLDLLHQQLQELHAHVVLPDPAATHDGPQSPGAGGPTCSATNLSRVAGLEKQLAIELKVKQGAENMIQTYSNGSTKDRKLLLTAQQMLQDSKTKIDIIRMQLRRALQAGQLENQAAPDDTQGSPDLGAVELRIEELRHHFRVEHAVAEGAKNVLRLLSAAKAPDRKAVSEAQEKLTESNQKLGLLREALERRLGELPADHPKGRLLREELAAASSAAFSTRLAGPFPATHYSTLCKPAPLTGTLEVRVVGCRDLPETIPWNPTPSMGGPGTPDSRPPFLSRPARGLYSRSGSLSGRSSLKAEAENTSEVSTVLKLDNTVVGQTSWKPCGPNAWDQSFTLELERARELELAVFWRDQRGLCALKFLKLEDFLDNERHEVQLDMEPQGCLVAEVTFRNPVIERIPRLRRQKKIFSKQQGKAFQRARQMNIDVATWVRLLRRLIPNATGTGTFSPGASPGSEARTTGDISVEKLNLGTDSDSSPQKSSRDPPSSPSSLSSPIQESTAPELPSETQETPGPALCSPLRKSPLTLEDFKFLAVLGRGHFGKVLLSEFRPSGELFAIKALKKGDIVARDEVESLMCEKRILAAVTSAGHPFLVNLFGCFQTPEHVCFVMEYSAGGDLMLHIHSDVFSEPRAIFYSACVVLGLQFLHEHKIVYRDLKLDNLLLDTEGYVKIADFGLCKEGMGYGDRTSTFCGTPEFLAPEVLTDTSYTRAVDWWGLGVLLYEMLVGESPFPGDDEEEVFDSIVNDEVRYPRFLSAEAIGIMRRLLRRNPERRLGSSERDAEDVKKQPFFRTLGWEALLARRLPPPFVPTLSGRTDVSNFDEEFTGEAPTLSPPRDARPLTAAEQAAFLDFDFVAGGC

COc1cc2c(Oc3ccc(-c4nc5ccccc5s4)cc3)ncnc2cc1OCCCN1CCN(C)CC1
residual activity [1]: 101% | residual activity [2]: 96% | residual activity [3]: 85% | residual activity [4]: 98% | residual activity [5]: 87% | residual activity [6]: 41% | residual activity [7]: 98% | residual activity [8]: 92% | residual activity [9]: 146% | residual activity [10]: 81%

COc1cc2c(Oc3ccc(-c4nc5ccccc5s4)cc3)ncnc2cc1OCCCN1CCCC1
residual activity [1]: 103% | residual activity [2]: 91% | residual activity [3]: 86% | residual activity [4]: 97% | residual activity [5]: 81% | residual activity [6]: 67% | residual activity [7]: 96% | residual activity [8]: 82% | residual activity [9]: 162% | residual activity [10]: 79%

COc1cc2c(Oc3ccc(-c4nc5ccccc5s4)cc3F)ncnc2cc1OCCCN1CCN(C)CC1
residual activity [1]: 105% | residual activity [2]: 85% | residual activity [3]: 73% | residual activity [4]: 99% | residual activity [5]: 96% | residual activity [6]: 42% | residual activity [7]: 93% | residual activity [8]: 62% | residual activity [9]: 63% | residual activity [10]: 86%
